Reference: article PMC11209911 (ACS Omega, 2024)

Biological target: α-glucosidase
Experiment: α-glucosidase inhibitor screening kit
Format: biochemical

C=C/C=C(\C)CC[C@@H]1C[C@@H](O)CC(=O)O1 [30b, (4R,6R)-4-Hydroxy-6-((E)-3-methylhexa-3,5-dien-1-yl)tetrahydro-2H-pyran-2-one]
IC50: 66.1 µM
